In patent publication US6479435B1, “Diaryl ethers and processes for their preparation and herbicidal and desiccant compositions containing them” (ISK Americas Incorporated, priority 1997, dated 2002):

Tests used:
Type in all cases: in vivo
[1] = system: upland rice (Oryza sp., var.Tebonnet, RICE); test: Pre-emerge greenhouse test, crop damage rating; details: 14 days after application, rating scale 0-100
From the text: (§1) A standard greenhouse herbicide activity screening system was used to evaluate the herbicidal efficacy and crop safety of these test compounds. Six broadleaf weed species including redroot pigweed (Amaranthus retroflexus, AMARE), velvetleaf (Abutilon theophrasti, ABUTH), sicklepod (Cassia obtusifolia, CASOB), ivyleaf morningglory (Ipomoea hederacea, IPOHE), lambsquarters (Chenopodium album, CHEAL) and common ragweed (Ambrosia artemisiifolia L., AMBEL) were used as test species. Four grass weed species including green foxtail (Setaria viridis, SETVI), barnyardgrass (Echinochloa crusgalli, ECHCG), Johnsongrass (Sorghum halepense, SORHA), and large crabgrass (Digitaria sanguinalis, DIGSA) were also used. In addition, three crop species, field corn (Zea mays L., var. Dekalb 535, CORN), soybean (Glycine max L., var. Pella 86, SOY), and upland rice (Oryza sp., var.Tebonnet, RICE) were included.
(§2) All plants were grown in 10 cm square plastic pots which were filled with a sandy loam soil mix. For preemerge tests, seeds were planted one day prior to application of the test compounds. Immediately after application, test units of the pre-emerge applications were watered at the soil surface to incorporate the test materials. Subsequently, these test units were bottom-watered.
(§3) All test compounds were dissolved in acetone and applied to the test units in a volume of 187 l/ha. Test materials were applied at rates ranging from 125 g ai/ha to 1000 g ai/ha using a track sprayer equipped with a TJ8001E even flow flat fan spray nozzle. Plants were arranged on a shelf so that the top of the canopy (post-emerge) or top of the soil surface (pre-emerge) was 40-45 cm below the nozzle. Pressurized air was used to force the test solution through the nozzle as it was mechanically advanced (via electrically driven chain drive) over the top of all test plants/pots. This application simulates a typical commercial field herbicide application.
(§4) At 14 days after application of the test materials, phytotoxicity ratings were recorded. A rating scale of 0-100 was used as previously described in Research Methods in Weed Science, 2nd edition, B. Truelove, Ed., Southern Weed Science Society, Auburn University, Auburn, Ala., 1977. Briefly, “0” corresponds to no damage and “100” corresponds to complete death of all plants in the test unit. This scale was used both to determine efficacy against weed species and damage to crop species. Herbicide activity data for various compounds of this invention, which are shown by compound number in Tables 1-9, are shown in Tables 13 and 14.

[2] = system: field corn (Zea mays L., var. Dekalb 535, CORN); test: Pre-emerge greenhouse test, crop damage rating; details: 14 days after application, rating scale 0-100
From the text: as §1, §2, §3, §4

[3] = system: barnyardgrass (Echinochloa crusgalli, ECHCG); test: Pre-emerge greenhouse herbicide test, phytotoxicity rating; details: 14 days after application, rating scale 0-100
From the text: as §1, §2, §3, §4

[4] = system: redroot pigweed (Amaranthus retroflexus, AMARE); test: as above; details: 14 days after application, rating scale 0-100
From the text: as §1, §2, §3, §4

[5] = system: lambsquarters (Chenopodium album, CHEAL); test: as above; details: 14 days after application, rating scale 0-100
From the text: as §1, §2, §3, §4

[6] = system: sicklepod (Cassia obtusifolia, CASOB); test: as above; details: 14 days after application, rating scale 0-100
From the text: as §1, §2, §3, §4

[7] = system: Johnsongrass (Sorghum halepense, SORHA); test: as above; details: 14 days after application, rating scale 0-100
From the text: as §1, §2, §3, §4

[8] = system: ivyleaf morningglory (Ipomoea hederacea, IPOHE); test: as above; details: 14 days after application, rating scale 0-100
From the text: as §1, §2, §3, §4

[9] = system: large crabgrass (Digitaria sanguinalis, DIGSA); test: as above; details: 14 days after application, rating scale 0-100
From the text: as §1, §2, §3, §4

[10] = system: green foxtail (Setaria viridis, SETVI); test: as above; details: 14 days after application, rating scale 0-100
From the text: as §1, §2, §3, §4

[11] = system: velvetleaf (Abutilon theophrasti, ABUTH); test: as above; details: 14 days after application, rating scale 0-100
From the text: as §1, §2, §3, §4

[12] = system: upland rice (Oryza sp., var.Tebonnet, RICE); test: Post-emerge greenhouse test, crop damage rating; details: 14 days after application; for crop damage rating RICE: scale 0-100
From the text: as §1, §3
(§5) In the post-emerge test, a commercial non-ionic surfactant was also included (0.25% v/v) to enhance wetting of the leaf surfaces Qf target plants at rates ranging from 63 g ai/ha to 1000 g ai/ha. For post-emerge tests, seeds were planted 8-21 days prior to the test to allow emergence and good foliage development prior to application of the test substances. At the time of the post-emerge application, plants of all species were usually at the 2-3 leaf stage of development. Post-emerge test units were always bottom-watered.
as §4

[13] = system: field corn (Zea mays L., var. Dekalb 535, CORN); test: Post-emerge greenhouse test, crop damage rating; details: 14 days after application; for crop damage rating CORN: scale 0-100
From the text: as §1, §3, §5, §4

[14] = system: soybean (Glycine max L., var. Pella 86, SOY); test: Pre-emerge greenhouse test, crop damage rating; design: key to SOY crop damage rating: 0 = no damage, 100 = complete death of all plants; details: 14 days after application, rating scale 0-100
From the text: as §1, §2, §3, §4

[15] = system: soybean (Glycine max L., var. Pella 86, SOY); test: Post-emerge greenhouse test, crop damage rating; design: key to crop damage rating SOY: 0-100 scale: 0 = no damage, 100 = complete death of all plants; details: 14 days after application; for crop damage rating SOY: scale 0-100
From the text: as §1, §3, §5, §4

[16] = system: barnyardgrass (Echinochloa crusgalli, ECHCG); test: Post-emerge greenhouse herbicide test, phytotoxicity rating; details: 14 days after application; for phytotoxicity rating ECHCG: scale 0-100
From the text: as §1, §3, §5, §4

[17] = system: redroot pigweed (Amaranthus retroflexus, AMARE); test: as above; details: 14 days after application; for phytotoxicity rating AMARE: scale 0-100
From the text: as §1, §3, §5, §4

[18] = system: lambsquarters (Chenopodium album, CHEAL); test: as above; details: 14 days after application; for phytotoxicity rating CHEAL: scale 0-100
From the text: as §1, §3, §5, §4

[19] = system: sicklepod (Cassia obtusifolia, CASOB); test: as above; details: 14 days after application; for phytotoxicity rating CASOB: scale 0-100
From the text: as §1, §3, §5, §4

[20] = system: Johnsongrass (Sorghum halepense, SORHA); test: as above; details: 14 days after application; for phytotoxicity rating SORHA: scale 0-100
From the text: as §1, §3, §5, §4

[21] = system: ivyleaf morningglory (Ipomoea hederacea, IPOHE); test: as above; details: 14 days after application; for phytotoxicity rating IPOHE: scale 0-100
From the text: as §1, §3, §5, §4

[22] = system: large crabgrass (Digitaria sanguinalis, DIGSA); test: as above; details: 14 days after application; for phytotoxicity rating DIGSA: scale 0-100
From the text: as §1, §3, §5, §4

[23] = system: green foxtail (Setaria viridis, SETVI); test: as above; details: 14 days after application; for phytotoxicity rating SETVI: scale 0-100
From the text: as §1, §3, §5, §4

[24] = system: velvetleaf (Abutilon theophrasti, ABUTH); test: as above; details: 14 days after application; for phytotoxicity rating ABUTH: scale 0-100
From the text: as §1, §3, §5, §4

## Nn1c(C(F)(F)F)cc(=O)n(-c2cc(Oc3cccc(F)n3)c(Cl)cc2F)c1=O [Compound 9-4, 1-Amino-3-[4-chloro-2-fluora-5-(6-fluoro-2-pyridyloxy)phenyl]-6-trifluoromethyl-1,2,3,4-tetrahydropyrimidine-2,4-dione]
[1]; Rate 125 g al/ha
  RICE crop damage rating: 40
[1]; Rate 500 g al/ha
  RICE crop damage rating: 99
[2]; Rate 125 g al/ha
  CORN crop damage rating: 60
[2]; Rate 500 g al/ha
  CORN crop damage rating: 95
[3]; Rate 125 g al/ha
  ECHCG phytotoxicity rating: 100
[3]; Rate 500 g al/ha
  ECHCG phytotoxicity rating: 100
[4]; Rate 125 g al/ha
  AMARE phytotoxicity rating: 100
[4]; Rate 500 g al/ha
  AMARE phytotoxicity rating: 100
[5]; Rate 125 g al/ha
  CHEAL phytotoxicity rating: 100
[5]; Rate 500 g al/ha
  CHEAL phytotoxicity rating: 100
[6]; Rate 125 g al/ha
  CASOB phytotoxicity rating: 60
[6]; Rate 500 g al/ha
  CASOB phytotoxicity rating: 100
[7]; Rate 125 g al/ha
  SORHA phytotoxicity rating: 99
[7]; Rate 500 g al/ha
  SORHA phytotoxicity rating: 100
[8]; Rate 125 g al/ha
  IPOHE phytotoxicity rating: 100
[8]; Rate 500 g al/ha
  IPOHE phytotoxicity rating: 100
[9]; Rate 125 g al/ha
  DIGSA phytotoxicity rating: 100
[9]; Rate 500 g al/ha
  DIGSA phytotoxicity rating: 100
[10]; Rate 125 g al/ha
  SETVI phytotoxicity rating: 100
[10]; Rate 500 g al/ha
  SETVI phytotoxicity rating: 100
[11]; Rate 125 g al/ha
  ABUTH phytotoxicity rating: 100
[11]; Rate 500 g al/ha
  ABUTH phytotoxicity rating: 100
[12]; rate 63 g ai/ha
  crop damage rating RICE: 50
[12]; rate 500 g ai/ha
  crop damage rating RICE: 70
[13]; rate 63 g ai/ha
  crop damage rating CORN: 40
[13]; rate 500 g ai/ha
  crop damage rating CORN: 80
[14]; Rate 125 g al/ha
  SOY crop damage rating: 80
[14]; Rate 500 g al/ha
  SOY crop damage rating: 95
[15]; rate 63 g ai/ha
  crop damage rating SOY: 95
[15]; rate 500 g ai/ha
  crop damage rating SOY: 100
[16]; rate 63 g ai/ha
  phytotoxicity rating ECHCG: 70
[16]; rate 500 g ai/ha
  phytotoxicity rating ECHCG: 100
[17]; rate 63 g ai/ha
  phytotoxicity rating AMARE: 95
[17]; rate 500 g ai/ha
  phytotoxicity rating AMARE: 100
[18]; rate 63 g ai/ha
  phytotoxicity rating CHEAL: 80
[18]; rate 500 g ai/ha
  phytotoxicity rating CHEAL: 100
[19]; rate 63 g ai/ha
  phytotoxicity rating CASOB: 90
[19]; rate 500 g ai/ha
  phytotoxicity rating CASOB: 100
[20]; rate 63 g ai/ha
  phytotoxicity rating SORHA: 70
[20]; rate 500 g ai/ha
  phytotoxicity rating SORHA: 98
[21]; rate 63 g ai/ha
  phytotoxicity rating IPOHE: 100
[21]; rate 500 g ai/ha
  phytotoxicity rating IPOHE: 100
[22]; rate 63 g ai/ha
  phytotoxicity rating DIGSA: 10
[22]; rate 500 g ai/ha
  phytotoxicity rating DIGSA: 95
[23]; rate 63 g ai/ha
  phytotoxicity rating SETVI: 30
[23]; rate 500 g ai/ha
  phytotoxicity rating SETVI: 95
[24]; rate 63 g ai/ha
  phytotoxicity rating ABUTH: 100
[24]; rate 500 g ai/ha
  phytotoxicity rating ABUTH: 100

## CS(=O)(=O)Nc1ccc(Oc2cc(-n3c(=O)cc4n(c3=O)CCC4)c(F)cc2Cl)cc1 [Compound 5-5]
[1]; 500 g ai/ha
  crop damage rating RICE: 0
[2]; 500 g ai/ha
  crop damage rating CORN: 0
[3]; 500 g ai/ha
  phytotoxicity rating ECHCG: 0
[4]; 500 g ai/ha
  phytotoxicity rating AMARE: 95
[5]; 500 g ai/ha
  phytotoxicity rating CHEAL: 100
[6]; 500 g ai/ha
  phytotoxicity rating CASOB: 0
[7]; 500 g ai/ha
  phytotoxicity rating SORHA: 0
[8]; 500 g ai/ha
  phytotoxicity rating IPOHE: 0
[9]; 500 g ai/ha
  phytotoxicity rating DIGSA: 0
[10]; 500 g ai/ha
  phytotoxicity rating SETVI: 0
[11]; 500 g ai/ha
  phytotoxicity rating ABUTH: 50
[12]; 500 g al/ha
  RICE crop damage rating (0-100): 0
[13]; 500 g al/ha
  CORN crop damage rating (0-100): 0
[14]; 500 g ai/ha
  crop damage rating SOY: 10
[15]; 500 g al/ha
  SOY crop damage rating (0-100): 0
[16]; 500 g al/ha
  ECHCG phytotoxicity rating (0-100): 0
[17]; 500 g al/ha
  AMARE phytotoxicity rating (0-100): 0
[18]; 500 g al/ha
  CHEAL phytotoxicity rating (0-100): 0
[19]; 500 g al/ha
  CASOB phytotoxicity rating (0-100): 0
[20]; 500 g al/ha
  SORHA phytotoxicity rating (0-100): 0
[21]; 500 g al/ha
  IPOHE phytotoxicity rating (0-100): 0
[22]; 500 g al/ha
  DIGSA phytotoxicity rating (0-100): 0
[23]; 500 g al/ha
  SETVI phytotoxicity rating (0-100): 0
[24]; 500 g al/ha
  ABUTH phytotoxicity rating (0-100): 0
